Assay results reported in patent publication US6586439B2, “Pharmaceutically active compounds” (Pfizer Inc., priority 1999, dated 2003).

System: cGMP PDE5
Test: In vitro PDE inhibitory activity against cGMP PDE5 (batch method or scintillation proximity assay)
Assay type: biochemical, human or rabbit
Description: In vitro PDE inhibitory activities against cyclic guanosine 3′,5′-monophosphate (cGMP) and cyclic adenosine 3′,5′-monophosphate (cAMP) phosphodiesterases were determined by measurement of their IC50 values (the concentration of compound required for 50% inhibition of enzyme activity).
The required PDE enzymes were isolated from a variety of sources, including human corpus cavernosum, human and rabbit platelets, human cardiac ventricle, human skeletal muscle and bovine retina, essentially by the method of W. J. Thompson and M. M. Appleman (Biochem., 1971, 10, 311). In particular, the cGMP-specific PDE (PDE5) and the cGMP-inhibited cAMP PDE (PDE3) were obtained from human corpus cavernosum tissue, human platelets or rabbit platelets; the cGMP-stimulated PDE (PDE2) was obtained from human corpus cavernosum; the calcium/calmodulin (Ca/CAM)-dependent PDE (PDE1) from human cardiac ventricle; the cAMP-specific PDE (PDE4) from human skeletal muscle; and the photoreceptor PDE (PDE6) from bovine retina. Phosphodiesterases 7-11 were generated from full length human recombinant clones transfected into SF9 cells.
Assays were performed either using a modification of the “batch” method of W. J. Thompson et al. (Biochem., 1979, 18, 5228) or using a scintillation proximity assay for the direct detection of AMP/GMP using a modification of the protocol described by Amersham plc under product code TRKQ7090/7100. In summary, the effect of PDE inhibitors was investigated by assaying a fixed amount of enzyme in the presence of varying inhibitor concentrations and low substrate, (cGMP or cAMP in a 3:1 ratio unlabelled to [^3H]-labeled at a conc ˜1/3 Km) such that IC50 ≅Ki. The final assay volume was made up to 100 μl with assay buffer [20 mM Tris-HCl pH 7.4, 5 mM MgCl2, 1 mg/ml bovine serum albumin]. Reactions were initiated with enzyme, incubated for 30-60 min at 30° C. to give <30% substrate turnover and terminated with 50 μl yttrium silicate SPA beads (containing 3 mM of the respective unlabelled cyclic nucleotide for PDEs 9 and 11). Plates were re-sealed and shaken for 20 min, after which the beads were allowed to settle for 30 min in the dark and then counted on a TopCount plate reader (Packard, Meriden, Conn.) Radioactivity units were converted to % activity of an uninhibited control (100%), plotted against inhibitor concentration and inhibitor IC50 values obtained using the ‘Fit Curve’ Microsoft Excel extension.

Compound	Percentage inhibition of PDE 5 (Concentration 100 nM)	Percentage inhibition of PDE 5 (Concentration 10 nM)
CCCOc1ccc(S(=O)(=O)N2CCN(CC)CC2)cc1-c1nc2[nH]cnc2c(=O)[nH]1 [Example 1, 2-[5-(4-Ethylpiperazin-1-ylsulfonyl)-2-n-propoxyphenyl]-9H-purin-6-one]	47	
CCCOc1ccc(S(=O)(=O)N2CCN(CC)CC2)cc1-c1nc2c(ncn2-c2ccc(N)cc2)c(=O)[nH]1 [Example 4, 9-(4-Aminophenyl)-2-[5-(4-ethylpiperazin-1-ylsulfonyl)-2-n-propoxy-phenyl]purin-6-one]		74.1
CCCOc1ccc(S(=O)(=O)N2CCN(C)CC2)cc1-c1nc2[nH]c(-c3cccnc3)nc2c(=O)[nH]1 [Example 5, 2-[5-(4-Methylpiperazin-1-ylsulfonyl)-2-n-propoxyphenyl]-8-(pyridin-3-yl)-9H-purin-6-one]	48	
CCCCOc1ncc(S(=O)(=O)N2CCN(CC)CC2)cc1-c1nc2c(nc(Cc3ccccc3)n2CCC)c(=O)[nH]1 [Example 7, 8-Benzyl-2-[2-n-butoxy-5-(4-ethylpiperazin-1-ylsulfonyl)pyridin-3-yl]-9-n-propylpurin-6-one]		80.3
CCCOc1ccc(S(=O)(=O)N2CCN(c3ccccn3)CC2)cc1-c1nc2c(ncn2CCC)c(=O)[nH]1 [Example 9, 2-(2-n-Propoxy-5-[4-{pyridin-2-yl}piperazin-1-ylsulfonyl]phenyl)-9-n-propylpurin-6-one]		100
